Active and inactive are the calls of the source.
Tests used:
[1] = target: Peroxisome proliferator-activated receptor gamma/Nuclear receptor coactivator 2 (Homo sapiens, UniProt P37231); experiment: (§1) TR-FRET dose response biochemical High Throughput Screening assay for agonists of the steroid receptor coactivator 2 (SRC-2) recruitment by the peroxisome proliferator-activated receptor gamma (PPAR gamma): non-selective agonists. [Related pubchem assays: 1297, 1032 ]; assay type: functional
[2] = target: Peroxisome proliferator-activated receptor gamma/Nuclear receptor coactivator 3 (Homo sapiens, UniProt P37231); experiment: as §1, with “3 (SRC-3)” for “2 (SRC-2)”, “1301 (Confirmation screen.), 1048 (Primary screen.)]” for “1297, 1032 ]”; assay type: functional
[3] = target: Peroxisome proliferator-activated receptor gamma/Nuclear receptor coactivator 1 (Homo sapiens, UniProt P37231); experiment: as §1, with “1 (SRC-1)” for “2 (SRC-2)”, “assays (depositor defined):AID1300, AID1808, AID504735, AID631]” for “assays: 1297, 1032 ]”; assay type: protein assay
[4] = target: Voltage-gated inwardly rectifying potassium channel KCNH2 (Homo sapiens, UniProt Q12809); experiment: hERG protection from proarrhythmic block, potency, dose response, cell-based, thallium flux (AID 2121); assay type: ADME
[5] = Luminescence Cell-Based Dose Confirmation HTS to Identify Inhibitors of Platelet Dense Granule Release. [Related pubchem assays: 1663 (Primary HTS), 1678 (Summary of Project)]; assay type: functional
[6] = target: T1, Estrogen receptor (Homo sapiens, UniProt P03372);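 also: potency for inhibiting coactivator peptide recruitment to the receptor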
T1 sequence (P03372 whole entry): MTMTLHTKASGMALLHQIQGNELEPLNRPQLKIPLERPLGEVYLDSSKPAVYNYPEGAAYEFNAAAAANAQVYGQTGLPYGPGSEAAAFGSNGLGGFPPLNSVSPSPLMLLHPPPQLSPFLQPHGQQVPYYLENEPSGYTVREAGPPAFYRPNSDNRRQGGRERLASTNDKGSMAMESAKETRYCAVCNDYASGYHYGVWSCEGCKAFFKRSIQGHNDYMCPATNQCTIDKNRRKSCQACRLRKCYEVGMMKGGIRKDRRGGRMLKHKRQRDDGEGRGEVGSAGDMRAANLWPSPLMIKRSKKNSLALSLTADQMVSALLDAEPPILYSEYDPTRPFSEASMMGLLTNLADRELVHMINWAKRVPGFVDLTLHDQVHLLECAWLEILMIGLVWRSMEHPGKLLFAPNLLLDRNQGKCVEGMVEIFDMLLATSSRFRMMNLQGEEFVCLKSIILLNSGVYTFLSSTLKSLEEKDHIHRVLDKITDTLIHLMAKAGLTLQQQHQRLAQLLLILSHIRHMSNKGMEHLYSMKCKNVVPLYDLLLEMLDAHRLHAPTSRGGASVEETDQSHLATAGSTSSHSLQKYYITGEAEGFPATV

[7] = target: T2, Estrogen receptor beta (Homo sapiens, UniProt Q92731);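 also: recombinant ER-beta bound to coactivator SRC1 peptide in presence of estradiol agonist; inhibitors block coactivator peptide binding and lower the FRET signal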
[8] = target: Luciferin 4-monooxygenase (Photinus pyralis, UniProt P08659); experiment: firefly luciferase enzyme inhibitors, dose response, biochemical, luminescence (AID 1891)
[9] = target: T2, Estrogen receptor beta; experiment: ERβ–SRC-3 coactivator interaction inhibitors, confirmation, orthogonal assay, biochemical, ELISA, streptavidin-HRP readout (AID 1060)
[10] = target: Sphingosine 1-phosphate receptor 2 (Homo sapiens, UniProt O95136); experiment: Dose Response Cell Based Assay for Agonists of the S1P2 Receptor. [Related pubchem assays: 729, 736, 843 ]; assay type: functional
[11] = target: T3, Streptokinase A (Streptococcus pyogenes serotype M1, UniProt P10520); experiment: S. pyogenes streptokinase expression inhibitors, potency, dose response, plasminogen activation absorbance, OD405 (AID 1914); assay type: functional, Streptococcus pyogenes M1 GAS;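 also: secreted streptokinase activity via plasminogen activation per viability signal from cell pellet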
T3 sequence (P10520 whole entry): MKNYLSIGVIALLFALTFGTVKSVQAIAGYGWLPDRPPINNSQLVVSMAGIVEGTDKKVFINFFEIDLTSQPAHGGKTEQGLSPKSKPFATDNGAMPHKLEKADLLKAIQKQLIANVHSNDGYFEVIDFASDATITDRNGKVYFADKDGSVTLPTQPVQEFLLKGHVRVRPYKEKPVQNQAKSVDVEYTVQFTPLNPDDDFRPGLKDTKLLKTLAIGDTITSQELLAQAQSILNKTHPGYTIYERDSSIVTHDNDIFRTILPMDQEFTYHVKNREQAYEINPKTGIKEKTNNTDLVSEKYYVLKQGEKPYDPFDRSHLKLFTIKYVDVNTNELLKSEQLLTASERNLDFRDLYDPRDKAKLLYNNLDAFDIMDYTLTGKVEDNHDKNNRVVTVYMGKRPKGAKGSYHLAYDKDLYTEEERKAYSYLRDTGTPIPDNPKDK

[12] = system: Streptococcus sp. 'group A'; experiment: growth inhibition of control SK(-) GAS strain, dose response, counter-screen for streptokinase expression inhibitor project, luminescence, kanamycin, BacTiterGlo, confirmation (AID 1900); assay type: functional, organism-based
[13] = target: Sphingosine 1-phosphate receptor 4 (Homo sapiens, UniProt O95977); experiment: Fluorescence dose response cell-based high throughput screening assay for agonists of the Sphingosine 1-Phosphate Receptor 4 (S1P4). [Related pubchem assays: 1509 (Primary screen.), 1523 (Confirmation screen in triplicates.)]; assay type: functional
[14] = target: Sphingosine 1-phosphate receptor 1 (Homo sapiens, UniProt P21453); experiment: Fluorescence-based counterscreen assay for S1P4 agonists: Cell-based dose response high throughput screening assay to identify agonists of the Sphingosine 1-Phosphate Receptor 1 (S1P1). [Related pubchem assays (depositor defined):AID1509, AID1523, AID1801, AID463107, AID463118, AID463119, AID463122, AID463123, AID463129, AID463225, AID504400, AID504460]; assay type: functional
[15] = system: Streptococcus; experiment: Group A Streptococcus viability loss, dose response, counter-screen for streptokinase expression inhibitor project, luminescence, BacTiterGlo (AID 1915); assay type: functional, organism-based;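 also: potency for reduction of bacterial viability or growth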
[16] = Luminescence Cell-Based Dose Retest to Confirm Inhibitors of Cancer Stem Cells. [Related pubchem assays (depositor defined):AID2717, AID2721]; assay type: functional; conditions: Homo sapiens
[17] = target: T4, Polyadenylate-binding protein 1 (Homo sapiens, UniProt P11940); experiment: PABP1 MLLE–PAM2 binding inhibitor potency, dose response, biochemical, fluorescence polarization, FITC-PAM2 peptide (AID 602259); assay type: functional; conditions: read-out: IC50_Mean
[18] = target: T5, Bifunctional protein GlmU (Mycobacterium tuberculosis, UniProt P9WMN3); experiment: Inhibitors of Mycobacterial Glucosamine-1-phosphate acetyl transferase (GlmU). Secondary screen.; set-up: species or system Mycobacterium tuberculosis H37Rv
T5 sequence (P9WMN3 whole entry): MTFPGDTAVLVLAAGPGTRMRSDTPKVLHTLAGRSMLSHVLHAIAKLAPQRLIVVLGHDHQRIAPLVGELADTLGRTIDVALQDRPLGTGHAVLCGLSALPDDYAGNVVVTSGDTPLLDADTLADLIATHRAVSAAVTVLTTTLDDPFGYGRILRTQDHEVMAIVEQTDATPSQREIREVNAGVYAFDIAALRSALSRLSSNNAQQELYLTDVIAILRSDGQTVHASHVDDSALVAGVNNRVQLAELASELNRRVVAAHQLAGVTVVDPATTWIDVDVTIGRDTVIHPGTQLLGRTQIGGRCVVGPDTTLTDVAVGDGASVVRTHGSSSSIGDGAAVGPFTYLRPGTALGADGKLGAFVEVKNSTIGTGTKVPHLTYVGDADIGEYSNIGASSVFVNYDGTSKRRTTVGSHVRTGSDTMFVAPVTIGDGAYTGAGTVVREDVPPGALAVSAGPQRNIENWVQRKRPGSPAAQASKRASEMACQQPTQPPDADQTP

[19] = target: T4, Polyadenylate-binding protein 1; experiment: PABP1 MLLE–PAM2 interaction inhibitors, dose response, miRNA deadenylation inhibitor project, biochemical, fluorescence polarization, Cy5-PAM2 peptide, secondary (AID 602260); assay type: functional; conditions: read-out: IC50_Mean
[20] = target: Induced myeloid leukemia cell differentiation protein Mcl-1 (Homo sapiens, UniProt Q07820); assay type: functional
[21] = cytotoxicity in HMLE control line with eGFP shRNA, dose response, counter-screen for HMLE_sh_ECad selective toxicity project, cell-based, HMLE_sh_eGFP, luminescence (AID 463074); assay type: functional, Homo sapiens;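 also: HMLE human mammary epithelial cells expressing control shRNA against eGFP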

T4 sequence (P11940 whole entry): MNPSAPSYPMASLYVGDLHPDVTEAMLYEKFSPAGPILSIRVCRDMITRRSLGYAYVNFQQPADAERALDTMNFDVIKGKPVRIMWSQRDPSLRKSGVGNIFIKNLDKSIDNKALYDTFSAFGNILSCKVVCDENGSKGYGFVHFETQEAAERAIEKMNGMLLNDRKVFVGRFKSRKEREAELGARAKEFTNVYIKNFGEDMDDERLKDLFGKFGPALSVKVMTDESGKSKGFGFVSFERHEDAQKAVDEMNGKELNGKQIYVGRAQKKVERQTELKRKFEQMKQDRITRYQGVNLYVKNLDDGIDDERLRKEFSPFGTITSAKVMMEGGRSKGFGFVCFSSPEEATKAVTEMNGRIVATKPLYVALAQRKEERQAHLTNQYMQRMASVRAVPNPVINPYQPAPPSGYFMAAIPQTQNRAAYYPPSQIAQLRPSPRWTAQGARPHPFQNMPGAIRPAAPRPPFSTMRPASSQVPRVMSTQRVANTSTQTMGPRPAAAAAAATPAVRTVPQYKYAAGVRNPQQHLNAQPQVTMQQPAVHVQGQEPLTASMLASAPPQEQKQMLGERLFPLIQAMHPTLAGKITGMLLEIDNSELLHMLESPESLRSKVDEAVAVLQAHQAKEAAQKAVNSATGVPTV
T2 sequence (Q92731 whole entry): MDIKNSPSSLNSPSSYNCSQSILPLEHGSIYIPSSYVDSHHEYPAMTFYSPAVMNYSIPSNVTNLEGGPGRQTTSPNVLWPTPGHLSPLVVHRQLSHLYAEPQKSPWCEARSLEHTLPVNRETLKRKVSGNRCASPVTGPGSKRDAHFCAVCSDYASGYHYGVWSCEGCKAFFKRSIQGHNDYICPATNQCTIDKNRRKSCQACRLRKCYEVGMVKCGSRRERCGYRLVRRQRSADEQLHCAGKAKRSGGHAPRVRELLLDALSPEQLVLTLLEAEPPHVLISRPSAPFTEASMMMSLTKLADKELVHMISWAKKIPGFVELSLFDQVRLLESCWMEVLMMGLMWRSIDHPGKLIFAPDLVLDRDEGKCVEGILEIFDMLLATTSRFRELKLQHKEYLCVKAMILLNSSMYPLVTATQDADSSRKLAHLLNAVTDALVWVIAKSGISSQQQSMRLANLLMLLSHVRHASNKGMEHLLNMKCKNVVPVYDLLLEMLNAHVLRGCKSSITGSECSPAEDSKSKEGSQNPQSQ
Chain of Peroxisome proliferator-activated receptor gamma/Nuclear receptor coactivator 2 (P37231 whole entry): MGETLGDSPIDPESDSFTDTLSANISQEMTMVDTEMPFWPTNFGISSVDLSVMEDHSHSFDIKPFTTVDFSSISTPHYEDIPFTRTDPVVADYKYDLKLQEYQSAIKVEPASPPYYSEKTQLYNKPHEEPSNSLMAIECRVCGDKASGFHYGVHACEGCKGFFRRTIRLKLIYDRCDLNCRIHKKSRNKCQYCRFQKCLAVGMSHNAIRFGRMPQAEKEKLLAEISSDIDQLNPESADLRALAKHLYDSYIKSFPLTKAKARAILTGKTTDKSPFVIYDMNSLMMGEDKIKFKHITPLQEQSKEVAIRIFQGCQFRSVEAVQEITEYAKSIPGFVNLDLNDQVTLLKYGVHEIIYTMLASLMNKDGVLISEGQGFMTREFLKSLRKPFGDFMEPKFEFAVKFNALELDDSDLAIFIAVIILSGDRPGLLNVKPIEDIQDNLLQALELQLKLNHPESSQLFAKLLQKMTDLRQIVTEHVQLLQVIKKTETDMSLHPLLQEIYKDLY
Chain of Peroxisome proliferator-activated receptor gamma/Nuclear receptor coactivator 2 (Q15596 whole entry, further chain): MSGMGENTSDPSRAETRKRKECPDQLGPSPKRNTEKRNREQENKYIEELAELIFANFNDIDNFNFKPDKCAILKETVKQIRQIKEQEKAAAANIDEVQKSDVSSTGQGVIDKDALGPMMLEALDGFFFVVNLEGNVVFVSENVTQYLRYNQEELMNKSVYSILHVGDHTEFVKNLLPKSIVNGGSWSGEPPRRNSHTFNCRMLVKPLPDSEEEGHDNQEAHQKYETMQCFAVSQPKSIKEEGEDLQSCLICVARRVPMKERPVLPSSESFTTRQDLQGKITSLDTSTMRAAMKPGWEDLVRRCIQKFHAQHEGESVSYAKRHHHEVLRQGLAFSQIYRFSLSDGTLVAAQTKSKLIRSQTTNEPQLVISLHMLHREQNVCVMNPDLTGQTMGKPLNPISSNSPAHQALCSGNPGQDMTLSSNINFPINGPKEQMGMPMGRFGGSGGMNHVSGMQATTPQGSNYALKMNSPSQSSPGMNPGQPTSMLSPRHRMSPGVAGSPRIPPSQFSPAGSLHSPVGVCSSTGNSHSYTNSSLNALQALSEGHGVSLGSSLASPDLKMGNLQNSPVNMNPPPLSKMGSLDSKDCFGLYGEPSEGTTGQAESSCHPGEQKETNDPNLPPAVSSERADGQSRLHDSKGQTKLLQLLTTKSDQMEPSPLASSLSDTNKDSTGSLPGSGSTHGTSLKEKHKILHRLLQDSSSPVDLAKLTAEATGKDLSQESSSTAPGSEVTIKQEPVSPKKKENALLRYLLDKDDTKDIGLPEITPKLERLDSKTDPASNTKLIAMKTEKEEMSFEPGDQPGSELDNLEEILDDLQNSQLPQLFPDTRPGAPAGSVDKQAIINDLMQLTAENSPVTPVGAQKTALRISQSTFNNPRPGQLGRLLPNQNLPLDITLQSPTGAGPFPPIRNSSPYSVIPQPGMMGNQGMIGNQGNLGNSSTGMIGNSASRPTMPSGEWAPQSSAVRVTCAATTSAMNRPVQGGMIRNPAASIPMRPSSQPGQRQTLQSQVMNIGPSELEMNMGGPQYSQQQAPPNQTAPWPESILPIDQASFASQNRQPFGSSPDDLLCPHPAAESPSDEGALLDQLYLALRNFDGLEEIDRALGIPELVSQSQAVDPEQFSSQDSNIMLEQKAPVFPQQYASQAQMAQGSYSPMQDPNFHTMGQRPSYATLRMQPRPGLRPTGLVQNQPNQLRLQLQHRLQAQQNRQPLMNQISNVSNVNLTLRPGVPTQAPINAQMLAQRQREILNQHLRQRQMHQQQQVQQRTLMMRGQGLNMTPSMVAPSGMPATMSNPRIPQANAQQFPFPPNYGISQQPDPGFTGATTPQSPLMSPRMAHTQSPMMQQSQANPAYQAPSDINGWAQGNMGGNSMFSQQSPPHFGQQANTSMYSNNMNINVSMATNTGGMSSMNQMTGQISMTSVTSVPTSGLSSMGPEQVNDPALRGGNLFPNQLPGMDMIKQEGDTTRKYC
Chain of Peroxisome proliferator-activated receptor gamma/Nuclear receptor coactivator 3 (P37231 whole entry): as the sequence (P37231 whole entry) above
Chain of Peroxisome proliferator-activated receptor gamma/Nuclear receptor coactivator 3 (Q9Y6Q9 whole entry, further chain): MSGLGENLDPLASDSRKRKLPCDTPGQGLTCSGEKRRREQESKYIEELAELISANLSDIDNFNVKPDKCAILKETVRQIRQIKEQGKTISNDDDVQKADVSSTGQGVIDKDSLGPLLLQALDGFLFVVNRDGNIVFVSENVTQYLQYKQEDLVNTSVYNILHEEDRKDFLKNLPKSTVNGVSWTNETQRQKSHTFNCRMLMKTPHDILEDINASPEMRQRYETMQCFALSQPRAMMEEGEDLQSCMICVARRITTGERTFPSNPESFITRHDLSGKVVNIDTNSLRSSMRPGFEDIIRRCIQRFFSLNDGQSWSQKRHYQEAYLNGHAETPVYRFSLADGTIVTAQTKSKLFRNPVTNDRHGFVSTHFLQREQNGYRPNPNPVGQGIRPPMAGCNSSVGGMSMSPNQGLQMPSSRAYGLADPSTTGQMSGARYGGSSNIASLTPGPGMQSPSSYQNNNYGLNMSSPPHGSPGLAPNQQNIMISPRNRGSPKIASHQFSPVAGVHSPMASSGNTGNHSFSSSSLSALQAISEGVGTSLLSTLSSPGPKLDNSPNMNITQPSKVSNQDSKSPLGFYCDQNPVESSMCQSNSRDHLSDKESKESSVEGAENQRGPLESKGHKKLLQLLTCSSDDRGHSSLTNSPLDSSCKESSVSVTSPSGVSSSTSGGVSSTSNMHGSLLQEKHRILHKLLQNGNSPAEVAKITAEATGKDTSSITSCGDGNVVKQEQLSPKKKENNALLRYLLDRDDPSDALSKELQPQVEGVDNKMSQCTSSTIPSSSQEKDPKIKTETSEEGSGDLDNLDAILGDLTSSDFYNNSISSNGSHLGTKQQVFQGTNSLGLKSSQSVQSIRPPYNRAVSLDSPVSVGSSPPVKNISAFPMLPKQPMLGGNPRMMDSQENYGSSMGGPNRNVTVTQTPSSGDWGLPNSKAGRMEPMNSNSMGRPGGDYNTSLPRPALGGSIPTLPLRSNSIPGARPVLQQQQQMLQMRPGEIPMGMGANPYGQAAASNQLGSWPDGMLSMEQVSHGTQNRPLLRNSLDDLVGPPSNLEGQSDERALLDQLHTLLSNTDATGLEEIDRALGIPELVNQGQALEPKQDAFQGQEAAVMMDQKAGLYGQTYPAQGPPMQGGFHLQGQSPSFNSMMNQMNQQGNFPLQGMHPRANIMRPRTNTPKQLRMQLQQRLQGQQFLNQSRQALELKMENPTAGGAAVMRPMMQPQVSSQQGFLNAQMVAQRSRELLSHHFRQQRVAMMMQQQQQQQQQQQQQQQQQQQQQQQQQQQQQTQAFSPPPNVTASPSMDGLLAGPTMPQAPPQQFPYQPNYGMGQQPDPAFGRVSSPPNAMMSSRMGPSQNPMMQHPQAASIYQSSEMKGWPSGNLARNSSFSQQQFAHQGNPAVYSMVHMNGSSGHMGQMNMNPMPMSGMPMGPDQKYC

## CCCC(=O)Nc1c2c(nc3ccccc13)N(c1ccccc1)CC2
[1]
  EC50: > 79.4 µM (not active)
[2]
  EC50: > 79.4 µM (not active)
[3]
  EC50: > 79.4 µM (inactive)

## O=C(NN1C(=O)/C(=C/c2nc3ccccc3[nH]2)SC1=S)c1cccc(Cl)c1
[1]
  EC50: > 79.4 µM (not active)
[2]
  EC50: > 79.4 µM (not active)
[3]
  EC50: > 79.4 µM (inactive)
[4]
  EC50: 7.01 µM (active)

## O=C(NCc1ccco1)c1cc2ccc(O)cc2oc1=O
[5]
  EC50: 1.82 µM (active)
[6]
  IC50: 14.3 µM (active)
[7]
  IC50: 3.57 µM (active)
[8]
  EC50: 0.288 µM (active)
[9]
  IC50: > 50 µM (not active)
[10]
  EC50: 3.28 µM (active)
[11]
  EC50: > 150 µM (not active)
[12]
  EC50: 7.99 µM (active)
[13]
  EC50: 1.84 µM (active)
[14]
  EC50: 5.05 µM (active)
[15]
  EC50: 13.3 µM (active)

## O=C1NN(c2cccc(F)c2)C(=O)/C1=C1\C(=O)Nc2ccccc21
[16]
  AC50: 4.9 µM (active)
[17]
  IC50: > 66 µM (inactive)
[18]
  IC50: 199 µM (active)
[19]
  IC50: > 66 µM (inactive)
[20]
  IC50: < 0.4 µM (active)
[21]
  AC50: 43.3 µM (active)
